Assay [1] concerns the target T1, human insulin receptor (HIR) (Homo sapiens, UniProt P06213).
T1 construct: made in house
Put plainly: 125I-insulin competition binding assay on solubilised purified receptor.

In assay [2] the test system is adipocytes. Put plainly: 3H-glucose uptake into adipocytes (fat cell assay, FFC). The class given is cell-based, Mouse. Also on record: key to FFC: 0 is no effect; + is agonist; - is antagonist.

The record followed here is patent EP1383793B1 (priority 2000, dated 2001).

Where two headings read alike, the source gives them in different places. Residues, ends and D or L forms follow the SMILES beside them. No end group written: not given here. *: point of attachment. Biotin = O=C1N[C@H]2[C@H](CS[C@H]2CCCCC(=O)*)N1

T1 sequence (P06213 28-758 limits assumed): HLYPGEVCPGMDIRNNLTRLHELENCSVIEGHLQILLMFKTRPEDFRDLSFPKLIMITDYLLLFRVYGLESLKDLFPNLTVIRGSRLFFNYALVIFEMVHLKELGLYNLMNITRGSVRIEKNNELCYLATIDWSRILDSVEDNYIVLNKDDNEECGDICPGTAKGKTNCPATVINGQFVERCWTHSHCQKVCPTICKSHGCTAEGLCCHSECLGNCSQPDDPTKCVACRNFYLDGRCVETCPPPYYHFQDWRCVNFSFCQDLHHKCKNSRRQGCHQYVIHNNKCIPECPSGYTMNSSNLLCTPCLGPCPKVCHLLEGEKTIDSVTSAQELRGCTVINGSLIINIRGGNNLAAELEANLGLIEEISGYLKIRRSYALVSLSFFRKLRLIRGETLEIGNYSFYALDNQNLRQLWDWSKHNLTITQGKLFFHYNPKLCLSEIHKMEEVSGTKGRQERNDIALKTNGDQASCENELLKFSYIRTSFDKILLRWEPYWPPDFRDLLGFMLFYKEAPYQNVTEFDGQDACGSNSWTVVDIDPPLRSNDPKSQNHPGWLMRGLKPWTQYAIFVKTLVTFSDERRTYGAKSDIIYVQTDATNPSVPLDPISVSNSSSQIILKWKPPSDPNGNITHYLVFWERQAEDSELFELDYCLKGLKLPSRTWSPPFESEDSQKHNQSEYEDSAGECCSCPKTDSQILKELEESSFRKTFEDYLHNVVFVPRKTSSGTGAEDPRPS
T1 sequence (P06213 763-1382 limits assumed): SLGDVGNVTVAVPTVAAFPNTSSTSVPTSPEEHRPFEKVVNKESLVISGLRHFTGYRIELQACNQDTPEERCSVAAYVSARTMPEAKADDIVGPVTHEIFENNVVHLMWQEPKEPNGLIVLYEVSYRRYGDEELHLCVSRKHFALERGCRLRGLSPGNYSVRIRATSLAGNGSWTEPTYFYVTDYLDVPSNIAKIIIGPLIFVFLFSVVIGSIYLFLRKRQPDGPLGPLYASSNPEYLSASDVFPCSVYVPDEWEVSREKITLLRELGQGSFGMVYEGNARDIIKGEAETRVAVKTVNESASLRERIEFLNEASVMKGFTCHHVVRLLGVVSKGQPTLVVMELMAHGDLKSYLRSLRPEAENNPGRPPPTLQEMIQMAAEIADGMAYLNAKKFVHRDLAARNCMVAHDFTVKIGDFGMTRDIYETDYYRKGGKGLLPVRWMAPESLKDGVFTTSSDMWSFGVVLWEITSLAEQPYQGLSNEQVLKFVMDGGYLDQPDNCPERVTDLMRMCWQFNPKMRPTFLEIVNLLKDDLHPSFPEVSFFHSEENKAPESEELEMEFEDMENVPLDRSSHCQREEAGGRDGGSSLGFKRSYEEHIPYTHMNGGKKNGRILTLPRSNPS

With AFYKWFAKK-NH2 [Clone S216], in assay [1] (read-out: HIR affinity), the Kd was above 20 µM.
Still for that read-out and setting: the result for RWPNFYGYFESLLTHFS-NH2 [Clone S257] reads 14 µM; that for FHENFYDWFVRAVSKK-NH2 [Clone S107], 1 µM; that for `CC(C)[C@H](NC(=O)[C@H](Cc1ccccc1)NC(=O)[C@H](Cc1c[nH]c2ccccc12)NC(=O)[C@H](CC(=O)O)NC(=O)[C@H](Cc1ccc(O)cc1)NC(=O)[C@H](Cc1ccccc1)NC(=O)[C@H](CC(N)=O)NC(=O)[C@H](CCC(=O)O)NC(=O)[C@H](Cc1c[nH]cn1)NC(=O)[C@@H](N)Cc1ccccc1)C(=O)N[C@@H](CCCNC(=N)N)C(=O)N[C@@H](CCC(N)=O)C(=O)N[C@H](C(=O)N[C@@H](CO)C(=O)N[C@@H](CCCCN)C(=O)N[C@@H](CCCCN)C(=O)N[C@@H](CNC(=O)CON=CCCCCCCC=NOCC(=O)NC[C@H](NC(=O)[C@H](CCCCN)NC(=O)[C@H](CCCCN)NC(=O)[C@H](CO)NC(=O)[C@@H](NC(=O)[C@H](CCC(N)=O)NC(=O)[C@H](CCCNC(=N)N)NC(=O)[C@@H](NC(=O)[C@H](Cc1ccccc1)NC(=O)[C@H](Cc1c[nH]c2ccccc12)NC(=O)[C@H](CC(=O)O)NC(=O)[C@H](Cc1ccc(O)cc1)NC(=O)[C@H](Cc1ccccc1)NC(=O)[C@H](CC(N)=O)NC(=O)[C@H](CCC(=O)O)NC(=O)[C@H](Cc1c[nH]cn1)NC(=O)[C@@H](N)Cc1ccccc1)C(C)C)C(C)C)C(N)=O)C(N)=O)C(C)C` [Clone S172], 4.8 µM.
As for GFREGQRWYWFVAQVT-NH2 [Clone S278], the Kd in assay [1] (read-out: HIR affinity) was above 20 µM.
Same read-out and setting: the result for AFYGWFAKK-NH2 [Clone S215] reads above 20 µM; that for `CC(C)[C@H](NC(=O)[C@H](Cc1ccccc1)NC(=O)[C@H](Cc1c[nH]c2ccccc12)NC(=O)[C@H](CC(=O)O)NC(=O)[C@H](Cc1ccc(O)cc1)NC(=O)[C@H](Cc1ccccc1)NC(=O)[C@H](CC(N)=O)NC(=O)[C@H](CCC(=O)O)NC(=O)[C@H](Cc1c[nH]cn1)NC(=O)[C@@H](N)Cc1ccccc1)C(=O)N[C@@H](CCCNC(=N)N)C(=O)N[C@@H](CCC(N)=O)C(=O)N[C@H](C(=O)N[C@@H](CO)C(=O)N[C@@H](CCCCN)C(=O)N[C@@H](CCCCN)C(=O)N[C@@H](CNC(=O)CON=CCCCCC=NOCC(=O)NC[C@H](NC(=O)[C@H](CCCCN)NC(=O)[C@H](CCCCN)NC(=O)[C@H](CO)NC(=O)[C@@H](NC(=O)[C@H](CCC(N)=O)NC(=O)[C@H](CCCNC(=N)N)NC(=O)[C@@H](NC(=O)[C@H](Cc1ccccc1)NC(=O)[C@H](Cc1c[nH]c2ccccc12)NC(=O)[C@H](CC(=O)O)NC(=O)[C@H](Cc1ccc(O)cc1)NC(=O)[C@H](Cc1ccccc1)NC(=O)[C@H](CC(N)=O)NC(=O)[C@H](CCC(=O)O)NC(=O)[C@H](Cc1c[nH]cn1)NC(=O)[C@@H](N)Cc1ccccc1)C(C)C)C(C)C)C(N)=O)C(N)=O)C(C)C` [Clone S169], 0.58 µM.
On the same count and under the same terms, the result for FHENFYDWFVRQVAKK-NH2 [Clone S105] reads 0.31 µM.
On the same count and under the same terms, the figure for FHENFYDWFVAQVSKK-NH2 [Clone S108] is 0.75 µM; for HLSVGEELSWWVALLGQWAR-NH2 [Clone S282] it is above 20 µM.
Take `CC(C)C[C@H](NC(=O)[C@H](C)NC(=O)[C@H](CO)NC(=O)[C@H](CCC(=O)O)NC(=O)[C@H](Cc1ccccc1)NC(=O)[C@H](Cc1c[nH]c2ccccc12)NC(=O)[C@H](CCC(=O)O)NC(=O)[C@H](Cc1ccc(O)cc1)NC(=O)[C@H](Cc1ccccc1)NC(=O)[C@@H](NC(=O)CNC(=O)CNC(=O)CNC(=O)[C@H](CCCNC(=N)N)NC(=O)[C@@H](N)CCCCN)[C@@H](C)O)C(=O)N[C@@H](CCCNC(=N)N)C(=O)N[C@@H](CCCCN)C(=O)N[C@@H](Cc1c[nH]cn1)C(=O)NCC(=O)N[C@@H](C)C(=O)NCC(=O)N[C@@H](CCCCN)C(=O)N[C@@H](CCCCNC(=O)CCCC[C@@H]1SC[C@@H]2NC(=O)N[C@@H]21)C(N)=O` [Clone D110] (H-KRGGGTFYEWFESALRKHGAGKK(Biotin)-NH2): in assay [1] (read-out: Kd (µM) HIR), the Kd is 0.84 µM.
FYDWFKK-NH2 [Clone S166]: the Kd in assay [1] (read-out: HIR affinity) is above 20 µM.
On the same count and under the same terms, the result for `CC(C)[C@H](NC(=O)[C@H](Cc1ccccc1)NC(=O)[C@H](Cc1c[nH]c2ccccc12)NC(=O)[C@H](CC(=O)O)NC(=O)[C@H](Cc1ccc(O)cc1)NC(=O)[C@H](Cc1ccccc1)NC(=O)[C@H](CC(N)=O)NC(=O)[C@H](CCC(=O)O)NC(=O)[C@H](Cc1c[nH]cn1)NC(=O)[C@H](Cc1ccccc1)NC(=O)CNC(=O)[C@@H](N)CS)C(=O)N[C@@H](CCCNC(=N)N)C(=O)N[C@@H](CCC(N)=O)C(=O)N[C@H](C(=O)N[C@@H](CO)C(=O)N[C@@H](CCCCN)C(=O)N[C@@H](CCCCN)C(N)=O)C(C)C` [Clone S171] reads 2.9 µM.
On the same count and under the same terms, the figure for QAPSNFYDWFVREWDEE-NH2 [Clone S287] is 5.9 µM; for AHENFYDWFVRQVSKK-NH2 [Clone S113] it is 0.59 µM; for AFYEWFAKK-NH2 [Clone S214] it is above 20 µM.
For the compound FYDWF-NH2 [Clone S165], the Kd in assay [1] (read-out: HIR affinity) was above 20 µM.
For the compound QSFYDYIEELLGGEWKK-NH2 [Clone S288], the Kd in assay [1] (read-out: HIR affinity) is 4.3 µM.
As to AFYDWFA-NH2 [Clone S181], the Kd in assay [1] (read-out: HIR affinity) is above 20 µM.
Still for that read-out and setting: the result for AAAAFYDWFAAAAAKK-NH2 [Clone S168] reads 3.8 µM.
Same read-out and setting: the result for TGHRLGLDEQFYWWFRDALSG-NH2 [Clone S265] reads 0.11 µM; that for AFYDWF-NH2 [Clone S182], above 20 µM; that for FHENFYDWFVRQASKK-NH2 [Clone S106], 0.42 µM.
As to ALEEEWAWVQVRSIRSGLPL-NH2 [Clone S284], in assay [1] (read-out: HIR affinity), the Kd is above 20 µM.
As for AFYDWFAK-NH2 [Clone S180], in assay [1] (read-out: HIR affinity), the Kd is above 20 µM.
In the case of APVSTEELRWGALLFGQWAG-NH2 [Clone S283], in assay [1] (read-out: HIR affinity), the Kd was above 20 µM.
As for `CC(C)C[C@@H]1NC(=O)[C@H](CCC(=O)O)NC(=O)[C@@H](NC(=O)[C@H](CC(C)C)NC(=O)[C@@H](NC(=O)[C@H](CCCNC(=N)N)NC(=O)[C@H](CC(C)C)NC(=O)[C@@H](N)CC(=O)O)C(C)C)CSSC[C@@H](C(=O)N[C@@H](CO)C(=O)N[C@@H](CCC(=O)O)C(N)=O)NC(=O)[C@H](Cc2ccc(O)cc2)NC(=O)CNC(=O)[C@H](CC(C)C)NC(=O)[C@H](C(C)C)NC(=O)[C@H](Cc2ccc(O)cc2)NC(=O)[C@H](C)NC(=O)CNC(=O)CNC(=O)[C@H](Cc2ccccc2)NC1=O` [Clone S281] (HELM PEPTIDE1{D.L.R.V.L.C.E.L.F.G.G.A.Y.V.L.G.Y.C.S.E.[am]}$PEPTIDE1,PEPTIDE1,6:R3-18:R3$$$V2.0; N-terminus assumed; bridges inferred), in assay [2], the FFC came to 0.
Still for that read-out and setting: the figure for FHENFTDWAVRQVSKK [Clone S223] is 0; for IQGWEPFYGWFDDWAQMFEE-NH2 [Clone S264] it is 0.
Regarding LDRQFYRYFQDLLVGFM-NH2 [Clone S260], in assay [1] (read-out: HIR affinity), the Kd was determined as 2.3 µM.
Regarding `CC(C)[C@@H](NC(=O)[C@@H](Cc1ccccc1)NC(=O)[C@@H](Cc1c[nH]c2ccccc12)NC(=O)[C@@H](CC(=O)O)NC(=O)[C@@H](Cc1ccc(O)cc1)NC(=O)[C@@H](Cc1ccccc1)NC(=O)[C@@H](CC(N)=O)NC(=O)[C@@H](CCC(=O)O)NC(=O)[C@@H](Cc1c[nH]cn1)NC(=O)[C@H](N)Cc1ccccc1)C(=O)N[C@H](CCCNC(=N)N)C(=O)N[C@H](CCC(N)=O)C(=O)N[C@@H](C(=O)N[C@H](CO)C(=O)N[C@H](CCCCN)C(=O)N[C@H](CCCCN)C(=O)O)C(C)C` [Clone S114], the FFC in assay [2] was 0.
Regarding FAENFYDWFVRQVSKK-NH2 [Clone S112], the Kd in assay [1] (read-out: HIR affinity) was 0.61 µM.
With SLNFYDALQLLAKK [Clone S119], the FFC in assay [2] amounted to 0.
